Entries after “also recorded” stand apart in the source; their conditions may differ. Read-outs that look alike come from different tables or passages of the source. Blank lines part the entries; values can stand above or below the compound they belong to. Square brackets hold non-standard residues; d marks the D form. Peptide text beside a SMILES is read from it. αMeP = C[C@@]1(C(=O)O)CCCN1
What was measured:
MeCP2 mutant mice = MeCP2 mutant mice (Tropea et al. 2009); cited from earlier work
[1] = system: children with Rett syndrome 2 to 10 years of age; conditions: Phase 2 trial (O'Leary et al. 2018); cited from earlier work
clinical = conditions: human, in vivo
Procedure: These pharmacokinetic results are in agreement with the data obtained previously in healthy subjects and in adolescent and adult RTT patients.
Therefore, the upper levels of exposure in the 200 mg/kg BID dose level were considered to be effective and thus an appropriate target exposure level. Thus, dosing strategies were developed with the aim of providing a minimal target exposure of 800 μg/mL·h, corresponding approximately to the 90-100% AUC quantile of exposure (AUC0-12) observed in the children/adolescents study for the nominal dose of 200 mg/kg BID. With weight-banding, a greater proportion of subjects is expected to achieve the target drug exposure.

[2] = system: patients with Rett syndrome; experiment: CGI-I exposure-response model; design: species or system human; conditions: refined population PK and E-R models
Procedure: Exposure-response analyses of the CGI-I scores were performed on data from patients with Rett syndrome with available trofinetide exposure estimates, plus placebo patients. All of the patients included in this analysis had at least 1 CGI-I score measured after trofinetide or placebo dosing. Data from 52 adult patients with Rett syndrome and 81 pediatric patients with Rett syndrome were pooled for this analysis.
The endpoints used for E-R efficacy modeling include CGI-I scores from two clinical studies and RSBQ scores from one clinical study. The CGI-I scores were measured on Days 5, 14, 17, and 26 and CGI-I scores were measured on Days 21, 28, 42, and 54. All patients received placebo for the first 14 days, so Day 14 was treated as the “true baseline” for trofinetide treatment. The RSBQ scores were collected on Days 14, 28, 42 and 54.
The overall procedures followed for the development of the E-R models for CGI-I and RSBQ scores were: 1) generation of individual estimates of exposure based on the population PK model; 2) exploratory data analysis; 3) base structural model development incorporating drug exposure effects; 4) evaluation of covariate effects, 5) final model refinement; and 6) model evaluation. Covariates evaluated in the analysis of efficacy endpoints were age, body weight, and BMI. […]

[3] = cited from earlier work
[4] = Population pharmacokinetic model from 9 clinical studies; type: in vivo, human; conditions: final population PK model, population mean
Excerpt: Data for the population PK model development of trofinetide came from 5 Phase 1 studies and 4 Phase 2 studies, including patients with Rett syndrome and other diseases. A total of 3058 trofinetide concentration records collected in 290 subjects were available for potential use in the analysis. A blend of full-profile and sparse data from 94 healthy volunteers, 93 patients with Rett syndrome (adult and pediatric), 103 patients with other diseases was available for this analysis.
Key steps for the development of the trofinetide population PK model were: 1) exploratory data analysis; 2) base structural model development via application, re-estimation, and refinement of a population PK model using pooled data from 9 clinical studies; 3) evaluation of covariate effects using forward selection; 4) full multivariable model evaluation: 5) backward elimination of covariates; 6) final model refinement; and 7) model evaluation. The continuous covariates evaluated included age, body weight, body mass index (BMI), estimated glomerular filtration rate, total bilirubin, alanine aminotransferase, and aspartate aminotransferase. The only categorical covariate evaluated was a combination of sex and disease state (SEXDS), where: SEXDS=0 for male healthy volunteers, SEXDS=1 for female healthy volunteers, SEXDS=2 for patients with Rett (female only), SEXDS=3 for patients with other disease A (male only), SEXDS=4 for male patients with other disease B, and SEXDS=5 for female patients with other disease B. The covariate analysis used a standard forward selection-backward elimination method to identify statistically significant (α=0.001) predictors of PK variability that also explained a sufficient proportion of interindividual variability (IIV) for the respective PK parameter upon which they were tested (that is, reducing IV by ≥5%). The final PK model was validated using a simulation-based, prediction-corrected visual predictive check (pcVPC) methodology to assess concordance between the model-based simulated data and the observed data.
A total of 2759 trofinetide plasma concentrations in 281 subjects were used in the development of the population PK model. The analysis dataset comprised subjects with a median (range) age of 22 (5 to 64) years and a median (range) body weight of 65.6 (15.1 to 139.6) kg, with 52.8% of the analysis population being male and 47.2% female.
The final population PK model for trofinetide was a 2-compartment model with first-order absorption, linear elimination, and 2 separate exponential error models for healthy volunteers and patients. The model included separate bioavailability terms for oral dosing (relative bioavailability [F1]) and dosing via gastric tube (F1G). Interindividual variability was estimated for first-order absorption (ka), clearance (CL), central volume of distribution (Vc), peripheral volume of distribution (Vp), and intercompartmental clearance (Q) using exponential error models.
A total of 4 covariate-parameter relationships were included in the final population PK model. […] Therefore, the final PK model included body weight as a significant predictor of both CL (as a power function) and Vc (as a power function), and SEXDS as a significant predictor of both CL (as a proportional function) and Vc (as a proportional function).

[5] = following oral administration; cited from earlier work
girls and women with RTT = experiment: Phase 2 clinical studies of trofinetide in Rett syndrome (efficacy, tolerability); type: in vivo, human
Procedure: Rett syndrome is a devastating disorder for which there is as yet no treatment beyond symptomatic care resulting in a great unmet medical need. […] Exposure-response analyses of RSBQ scores were performed on data from pediatric patients with Rett syndrome with available trofinetide exposure estimates, plus placebo patients. All of the patients included in this analysis had at least 1 RSBQ score measured after trofinetide or placebo dosing. The RSBQ E-R analysis dataset included only the 81 pediatric patients with Rett syndrome. The endpoints used for E-R efficacy modeling include CGI-I scores from two clinical studies and RSBQ scores from one clinical study. The CGI-I scores were measured on Days 5, 14, 17, and 26 and CGI-I scores were measured on Days 21, 28, 42, and 54. All patients received placebo for the first 14 days, so Day 14 was treated as the “true baseline” for trofinetide treatment. The RSBQ scores were collected on Days 14, 28, 42 and 54.

[6] = 50 mg/kg BID, pediatric RTT patients
[7] = 100 mg/kg BID, pediatric RTT patients
[8] = 200 mg/kg BID, pediatric RTT patients

Compound: glycine-proline-glutamate [GPE]
effect on Rett-like symptoms (MeCP2 mutant mice): reversed Rett-like symptoms

Compound: mecasermin: recombinant human IGF-1, a compound related to trofinetide
CSBS-DP-IT, active treatment group compared to placebo [1]: evidence of benefit

effect of body weight on clearance and central volume of distribution (clinical): significant effect | AUC(0-t) (clinical; 200 mg/kg): ≥ 790 µg·h/mL | bioavailability ([4]; both sexes, human, plasma, other: gastric tube, read-out: F1G: Gastric Tube Bioavailability): 84.7% | bioavailability ([4]; both sexes, human, plasma, po, read-out: F1: Oral Bioavailability): 77% | clearance ([4]; both sexes, human, plasma, read-out: CL: Central Clearance (converted)): 192 mL/min | Q: Distribution Clearance [4]: 1.02 L/h | Vc: Central Volume [4]: 22.2 L | Vc: Exponent of (WTKG/65) for Vc [4]: 0.770 | Vc: Proportional Shift in Vc for Rett = 1 [4]: −0.562 | Vc: Proportional Shift in Vc for disease B = 1 [4]: −0.374 | Vp: Peripheral Volume [4]: 53.0 L | ka: First-Order Absorption Rate Constant [4]: 0.195 h⁻¹
Compound: C[C@@]1(C(=O)N[C@@H](CCC(=O)O)C(=O)O)CCCN1C(=O)CN [trofinetide, (2S)-2-[[(2S)-1-(2-aminoacetyl)-2-methylpyrrolidine-2-carbonyl]amino]pentanedioic acid] (H-Gly-[αMeP]-Glu-OH)
association of higher trofinetide exposure with improvement in Rett syndrome (CGI-I and RSBQ scores) compared to placebo [2]: greater improvement | median AUC(0-12ss) [3, 6]: 139.4 µg·h/mL | median Cmax [3, 6]: 17.7 µg/mL | median AUC(0-12ss) [3, 7]: 338.6 µg·h/mL | median Cmax [3, 7]: 52.6 µg/mL | median AUC(0-12ss) [3, 8]: 505.1 µg·h/mL | median Cmax [3, 8]: 82.2 µg/mL | accumulation, metabolic inhibition, or induction during treatment ([3]; Phase 2 studies): no accumulation, metabolic inhibition, or induction | pharmacokinetics across the dose range tested ([3]; pediatric RTT patients): linear pharmacokinetics | blood-brain barrier passage [5]: crosses the blood-brain barrier | clinical efficacy versus placebo (girls and women with RTT; 200 mg/kg BID, Phase 2): evidence of clinical efficacy; also recorded: benefit compared to placebo | median percent change in RSBQ scores from baseline (girls and women with RTT; 200 mg/kg twice daily (BID), over 54 days, pediatric patients with Rett syndrome): −14.4% | PK/PD relationship (exposure versus RSBQ, RTT-DSC, CGI-I) (girls and women with RTT; exploratory analyses, Phase 2): positive PK/PD relationship | tolerability (girls and women with RTT; two studies in girls and women with RTT): well tolerated

Source: patent publication US20220339138A1, “METHODS AND COMPOSITIONS FOR TREATMENT OF RETT SYNDROME” (ACADIA PHARMACEUTICALS INC., priority 2019, published 2022)
